Assays:
Assay type in all cases: in vivo, human
[1] = test system: C. difficile infection (CDI); experiment: CDI trial: subgroup analysis of diarrhea at TOC; details: at TOC
From the text: Tables 42 and 43 set forth a subgroup analysis of diarrhea at TOC.

[2] = test system: C. difficile infection (CDI); experiment: CDI trial: enteric symptoms at TOC; details: Rifaximin N = 108, Vancomycin N = 111
From the text: Table 41 sets forth a summary of the enteric symptoms at TOC.

[3] = test system: C. difficile infection (CDI); experiment: CDI trial: number of unformed stools during the treatment period; details: during the treatment period; ANOVA model with treatment and center as main effects; Rifaximin N = 117, Vancomycin N = 115
From the text: FIG. 18 sets for the average number of unformed stools per day of the study.

[4] = test system: C. difficile infection (CDI); experiment: CDI trial: continuing illnesses; details: Rifaximin N = 117, Vancomycin N = 115
[5] = test system: C. difficile infection (CDI); experiment: CDI trial rifaximin 400 mg TID vs vancomycin 125 mg QID: clinical success at Test of Cure; details: at TOC (Day 14+/−1)
Procedure: Criteria for entry into the trial were: • Age>=18 years old; • Had acute diarrhea at screening defined as >=3 unformed stools in the last 24 hours and at least one sign of enteric infection (fever, nausea, lose of appetite, vomiting, severe abdominal pain/discomfort); and • a positive C. diff stool toxin assay
The primary efficacy endpoint of the study was defined as the proportion of subjects achieving clinical success. Specifically, clinical success was defined as the absence of severe abdominal pain at Test of Cure (TOC), absence of fever (<38° C.) at TOC, and <3 unformed stools for two consecutive days at TOC.
The non-inferiority margin for the primary endpoint was defined as lower bound of 95% CI of delta above −15%.
Clinical success was defined as the: Absence of severe abdominal pain at TOC, absence of fever (<38° C.) at TOC, and <3 unformed stools for two consecutive days at TOC. Test of cure defined as Day 14+/−1 day.

[6] = test system: C. difficile infection (CDI); experiment: CDI trial: efficacy adjusting for concomitant medication usage
From the text: Table 48 sets forth the efficacy adjusting for concomitant medication usage.

[7] = test system: C. difficile infection (CDI); experiment: CDI trial: global cure of diarrhea; details: Rifaximin N = 117, Vancomycin N = 115
From the text: Subjects having a global cure of diarrhea are set for the in Table 45. Global cure of diarrhea was defined as subjects who were cured of diarrhea at TOC without recurrence at follow up.

[8] = test system: C. difficile infection (CDI); experiment: CDI trial: recurrence of CDI, recurrence rate per person-year
From the text: Recurrence was defined to be a diarrhea and a positive C. diff stool toxin assay that occurred after initial clinical success.

[9] = subgroup Age <65, Rifaximin N = 69, Vancomycin N = 62
[10] = subgroup Age >=65, Rifaximin N = 39, Vancomycin N = 49
[11] = subgroup Female, Rifaximin N = 68, Vancomycin N = 64
[12] = subgroup Male, Rifaximin N = 40, Vancomycin N = 47
[13] = Rifaximin N = 117, Vancomycin N = 115
[14] = Rifaximin N = 109, Vancomycin N = 112
[15] = cured of diarrhea at TOC without recurrence at follow up
[16] = after initial clinical success, Rifaximin N = 67, Vancomycin N = 73
[17] = all subjects, Rifaximin N = 117, Vancomycin N = 115

In the case of CN[C@H](CC(C)C)C(=O)N[C@H]1C(=O)N[C@@H](CC(N)=O)C(=O)N[C@H]2C(=O)N[C@H]3C(=O)N[C@H](C(=O)N[C@H](C(=O)O)c4cc(O)cc(O)c4-c4cc3ccc4O)[C@H](O)c3ccc(c(Cl)c3)Oc3cc2cc(c3O[C@@H]2O[C@H](CO)[C@@H](O)[C@H](O)[C@H]2O[C@H]2C[C@](C)(N)[C@H](O)[C@H](C)O2)Oc2ccc(cc2Cl)[C@H]1O [Vancomycin, vancomycin], the “Diarrhea, number of subjects” value [1, 9] is reported as 12, the “Diarrhea, percent of subjects” value [1, 9] is reported as “(19%)” and the “No Diarrhea, number of subjects” value [1, 9] is reported as 50. The “No Diarrhea, percent of subjects” value [1, 9] was “(81%)”, the “Diarrhea, number of subjects” value [1, 10] was 9 and the “Diarrhea, percent of subjects” value [1, 10] was “(18%)”. For the same molecule, the “No Diarrhea, number of subjects” value [1, 10] was 40, the “No Diarrhea, percent of subjects” value [1, 10] was “(82%)” and the “Diarrhea, number of subjects” value [1, 11] was 11. The “Diarrhea, percent of subjects” value [1, 11] was “(17%)”, the “No Diarrhea, number of subjects” value [1, 11] was 53 and the “No Diarrhea, percent of subjects” value [1, 11] was “(83%)”. For the same molecule, the “Diarrhea, number of subjects” value [1, 12] was 10, the “Diarrhea, percent of subjects” value [1, 12] was “(21%)” and the “No Diarrhea, number of subjects” value [1, 12] was 37. For the same molecule, the “No Diarrhea, percent of subjects” value [1, 12] was “(79%)”, the “Diarrhea: No, number of subjects” value [2] was 90 and the “Diarrhea: No, percent of subjects” value [2] was “(81%)”. The “Diarrhea: Yes, number of subjects” value [2] was 21, the “Diarrhea: Yes, percent of subjects” value [2] was “(19%)” and the “Fever: No, number of subjects” value [2] was 109. The “Fever: No, percent of subjects” value [2] was “(98%)”, the “Fever: Yes, number of subjects” value [2] was 2 and the “Fever: Yes, percent of subjects” value [2] was “(2%)”. For the same molecule, the “Severe Abdominal Pain/Discomfort: No, number of subjects” value [2] was 95, the “Severe Abdominal Pain/Discomfort: No, percent of subjects” value [2] was “(86%)” and the “Severe Abdominal Pain/Discomfort: Yes, number of subjects” value [2] was 16. The “Severe Abdominal Pain/Discomfort: Yes, percent of subjects” value [2] was “(14%)”, the “Adjusted mean number of unformed stools-ANOVA” value [3] was 1.90 and the “Continuing Illness: No, number of subjects” value [4] was 99. The “Continuing Illness: No, percent of subjects” value [4] was “(86%)”, the “Continuing Illness: Yes, number of subjects” value [4] was 16 and the “Continuing Illness: Yes, percent of subjects” value [4] was “(14%)”. The “Clinical Success: Yes, number of subjects” value ([5]; Rifaximin 400 mg TID N = 117, Vancomycin 125 mg QID N = 115) was 73, the “Clinical Success: No, number of subjects” value [5, 13] was 42 and the “Clinical Success: No, percent of subjects” value [5, 13] was “(37%)”. For the same molecule, the “Clinical Success: Yes, percent of subjects” value [5, 13] was “(64%)”, the “Diarrhea: No, number of subjects” value [6, 14] was 82 and the “Diarrhea: No, percent of subjects” value [6, 14] was “(73%)”. The “Diarrhea: Yes, number of subjects” value [6, 14] was 30, the “Diarrhea: Yes, percent of subjects” value [6, 14] was “(27%)” and the “Clinical Success: No, number of subjects” value [6, 13] was 46. The “Clinical Success: No, percent of subjects” value [6, 13] was “(40%)”, the “Clinical Success: Yes, number of subjects” value [6, 13] was 69 and the “Clinical Success: Yes, percent of subjects” value [6, 13] was “(60%)”. For the same molecule, the “Global Cure of Diarrhea: No, number of subjects” value [7] was 30, the “Global Cure of Diarrhea: No, percent of subjects” value [7] was “(26%)” and the “Global Cure of Diarrhea: Yes, number of subjects” value [7, 15] was 85. The “Global Cure of Diarrhea: Yes, percent of subjects” value [7, 15] was “(74%)”, the “No Recurrence of CDI, number of subjects” value [8, 16] was 63 and the “No Recurrence of CDI, percent of subjects” value [8, 16] was “(86%)”. For the same molecule, the “Recurrence of CDI, number of subjects” value [8, 16] was 10, the “Recurrence of CDI, percent of subjects” value [8, 16] was “(14%)” and the “Recurrence: No, number of subjects” value [8, 17] was 105. The “Recurrence: No, percent of subjects” value [8, 17] was “(93%)”, the “Recurrence: Yes, number of subjects” value [8, 17] was 10 and the “Recurrence: Yes, percent of subjects” value [8, 17] was “(7%)”.

From US20130184302A1, “METHODS FOR TREATING IRRITABLE BOWEL SYNDROME (IBS) AND INFECTIONS” (priority 2011, published 2013)
